Data on 5 compounds can be found in US20230147040A1, “METHOD FOR PROGNOSIS PREDICTION OF SKIN CANCER AND USE THEREOF” (PUBLIC UNIVERSITY CORPORATION NAGOYA CITY UNIVERSITY, priority 2020, published 2023).

Holding throughout (assay type): in vivo
For assay [1], the system named is Merkel cell carcinoma. The experiment in a line: Clinical course of Merkel cell carcinoma cases under treatment.
The subject of assay [2] is cutaneous angiosarcoma. In words: Clinical course of cutaneous angiosarcoma cases under treatment. The settings on record: primary lesion in the head.
The subject of assay [3] is G6PD. The experiment in a line: G6PD activity in patient serum (G6PD assay kit). The settings on record: Case 4, avelumab and IMRT in combination. How it is done: For 50 patient serum specimens of 19 cases, the G6PD activity was measured using a G6PD assay kit (Abeam, ab102529). The average activity value of the 50 specimens was 11.45 mU/ml.
The course of Merkel cell carcinoma was confirmed for the cases (Case 1 to 3) of 3 specimens having a particularly high G6PD activity (19 mU/ml or more) among the 50 specimens. In addition, the course of Merkel cell carcinoma was confirmed for a case (Case 4) having a decreased G6PD activity. In FIGS. 6 to 8 shown below, the vertical axis represents the G6PD activity (mU/ml), and the horizontal axis represents the period.

The mark [4] stands for this setting: Case B, wPTX, then changed to eribulin.

For the compound `COc1cc([C@@H]2c3cc4c(cc3[C@@H](O[C@@H]3O[C@@H]5CO[C@@H](C)O[C@H]5[C@H](O)[C@H]3O)[C@H]3COC(=O)[C@H]23)OCO4)cc(OC)c1O` [VP-16], in assay [1] (Case 1, stage IV, systemic lymph node metastasis after surgical resection and radiation therapy, combination therapy of CBDGB and VP-16), the therapeutic effect entry is “no therapeutic effect was observed”.

For the compound `C=C1C[C@@H]2CC[C@@]34C[C@H]5O[C@H]6[C@@H](O3)[C@H]3O[C@H](CC[C@@H]3O[C@H]6[C@H]5O4)CC(=O)C[C@@H]3[C@@H](OC)[C@@H](C[C@H](O)CN)O[C@H]3C[C@H]3O[C@@H](CC[C@@H]1O2)C[C@@H](C)C3=C` [eribulin], the clinical course entry in assay [2] (setting [4]) was “pneumothorax (PD) was developed”.

Turning to `CC(=O)O[C@@]12CO[C@@H]1C[C@H](O)[C@@]1(C)C(=O)[C@H](O)C3=C(C)[C@@H](OC(=O)[C@H](O)[C@@H](NC(=O)OC(C)(C)C)c4ccccc4)C[C@@](O)([C@@H](OC(=O)c4ccccc4)[C@H]21)C3(C)C` [wDTX], in assay [2] (Case C, upon administration of wDTX), the clinical course entry is on record as “pneumothorax was developed”.

Consider `CC(=O)O[C@H]1C(=O)[C@@]2(C)[C@H]([C@H](OC(=O)c3ccccc3)[C@]3(O)C[C@H](OC(=O)[C@H](O)[C@@H](NC(=O)c4ccccc4)c4ccccc4)C(C)=C1C3(C)C)[C@]1(OC(C)=O)CO[C@@H]1C[C@@H]2O` [wPTX], for which the clinical course result in assay [2] (Case A, wPTX therapy and radiation therapy) is “the performance status (PS) deteriorated”; in assay [2] (setting [4]), “parotid lymph node metastasis was observed”.

On to avelumab, for which the G6PD activity result in assay [3] is recorded as “significantly reduced”. Further, the clinical outcome was “death of current disease was caused after several months” in assay [1] (Case 1, stage IV, trial of avelumab after failed combination chemotherapy) and “complete remission (CR)” in assay [1] (Case 4, stage III, avelumab in combination with IMRT). The “PET/CT accumulation in right submandibular lymph node” value in assay [1] (Case 4, stage III, avelumab alone, after 3 months) is on record as “enhancement of the accumulation was observed”.
